Test results taken from patent US9493448B2, “Cycloalkane derivatives” (Daiichi Sankyo Company, Limited, priority 2012, dated 2016).
Where a name gives a salt, the structure may show the parent alone.

target: hNav 1.7 (Homo sapiens (Human), UniProt Q15858); test: Electrophysiological evaluation, automated patch clamp IonWorks Quattro (Population Patch Clamp mode); type: cell-based; conditions: HEK293A cells stably expressing hNav 1.7/β1/β2; response to second depolarization pulse, pre-pulse potential set to V1/2; read-out: hNav1.7 IC50
Sequence (Q15858 whole entry): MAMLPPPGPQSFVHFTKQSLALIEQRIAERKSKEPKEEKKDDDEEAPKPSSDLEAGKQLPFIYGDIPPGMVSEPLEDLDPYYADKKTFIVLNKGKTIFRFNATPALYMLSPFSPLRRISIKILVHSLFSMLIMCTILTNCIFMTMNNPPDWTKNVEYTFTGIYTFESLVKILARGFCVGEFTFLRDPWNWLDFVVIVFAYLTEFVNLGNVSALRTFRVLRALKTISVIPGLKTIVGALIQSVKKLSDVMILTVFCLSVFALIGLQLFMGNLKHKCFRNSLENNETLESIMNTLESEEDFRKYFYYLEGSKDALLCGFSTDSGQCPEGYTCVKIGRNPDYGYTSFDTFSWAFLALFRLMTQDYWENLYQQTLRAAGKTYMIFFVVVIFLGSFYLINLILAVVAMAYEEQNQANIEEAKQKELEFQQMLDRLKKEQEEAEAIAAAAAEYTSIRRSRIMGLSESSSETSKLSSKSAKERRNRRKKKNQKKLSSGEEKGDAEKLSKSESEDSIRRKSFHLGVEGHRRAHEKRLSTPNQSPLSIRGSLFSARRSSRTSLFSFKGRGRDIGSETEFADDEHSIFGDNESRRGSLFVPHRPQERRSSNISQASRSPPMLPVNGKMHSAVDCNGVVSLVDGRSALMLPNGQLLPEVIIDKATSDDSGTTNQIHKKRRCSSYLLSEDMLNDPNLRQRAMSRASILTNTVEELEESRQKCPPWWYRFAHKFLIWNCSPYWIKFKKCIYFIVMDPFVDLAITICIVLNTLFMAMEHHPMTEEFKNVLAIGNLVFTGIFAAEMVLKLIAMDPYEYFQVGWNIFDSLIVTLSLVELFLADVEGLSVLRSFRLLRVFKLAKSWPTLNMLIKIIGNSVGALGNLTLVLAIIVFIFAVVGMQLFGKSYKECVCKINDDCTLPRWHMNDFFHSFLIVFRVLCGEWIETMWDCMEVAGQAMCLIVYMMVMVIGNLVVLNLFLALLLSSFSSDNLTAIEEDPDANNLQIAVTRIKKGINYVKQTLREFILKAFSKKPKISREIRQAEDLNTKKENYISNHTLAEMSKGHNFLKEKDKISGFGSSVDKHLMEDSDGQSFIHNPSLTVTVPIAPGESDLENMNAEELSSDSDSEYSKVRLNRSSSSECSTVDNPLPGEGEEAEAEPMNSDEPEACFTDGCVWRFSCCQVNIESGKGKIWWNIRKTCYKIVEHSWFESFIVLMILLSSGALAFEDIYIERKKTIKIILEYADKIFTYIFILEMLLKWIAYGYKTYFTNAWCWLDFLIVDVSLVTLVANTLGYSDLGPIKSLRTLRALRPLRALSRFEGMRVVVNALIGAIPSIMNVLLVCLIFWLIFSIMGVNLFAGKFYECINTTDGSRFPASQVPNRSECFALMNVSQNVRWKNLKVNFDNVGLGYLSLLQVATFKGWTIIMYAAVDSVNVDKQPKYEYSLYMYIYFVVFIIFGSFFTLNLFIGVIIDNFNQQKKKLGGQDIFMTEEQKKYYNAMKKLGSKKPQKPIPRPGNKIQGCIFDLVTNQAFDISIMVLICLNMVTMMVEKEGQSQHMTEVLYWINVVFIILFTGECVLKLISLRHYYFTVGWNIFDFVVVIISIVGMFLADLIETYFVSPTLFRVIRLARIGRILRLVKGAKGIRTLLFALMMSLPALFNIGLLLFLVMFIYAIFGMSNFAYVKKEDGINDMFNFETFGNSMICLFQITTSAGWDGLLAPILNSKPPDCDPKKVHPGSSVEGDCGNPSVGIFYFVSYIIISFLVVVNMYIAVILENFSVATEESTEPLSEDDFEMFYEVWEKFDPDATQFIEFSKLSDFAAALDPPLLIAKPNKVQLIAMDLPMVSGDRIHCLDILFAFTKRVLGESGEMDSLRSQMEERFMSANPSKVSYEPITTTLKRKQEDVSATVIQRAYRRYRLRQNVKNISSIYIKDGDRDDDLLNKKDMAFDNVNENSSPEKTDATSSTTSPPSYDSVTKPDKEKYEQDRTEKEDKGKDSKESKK
Sequence (Q07699 19-218 partner): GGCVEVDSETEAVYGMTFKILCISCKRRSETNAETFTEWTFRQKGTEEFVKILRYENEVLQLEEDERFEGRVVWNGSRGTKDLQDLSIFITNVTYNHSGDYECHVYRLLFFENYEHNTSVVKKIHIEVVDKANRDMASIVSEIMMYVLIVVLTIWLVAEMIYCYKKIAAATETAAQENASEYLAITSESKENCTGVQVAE
Sequence (O60939 30-215 partner): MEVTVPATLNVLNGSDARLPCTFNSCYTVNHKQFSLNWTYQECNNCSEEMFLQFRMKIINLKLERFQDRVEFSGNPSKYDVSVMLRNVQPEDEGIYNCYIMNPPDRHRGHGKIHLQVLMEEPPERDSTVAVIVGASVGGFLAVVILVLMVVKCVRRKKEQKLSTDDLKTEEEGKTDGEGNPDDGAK

| Compound | IC50 |
| --- | --- |
| O=S(=O)(Nc1ncns1)c1cc(F)c(O[C@H]2CCC[C@@H]2c2ccccc2)cc1F (relative stereo) [Example 6, 2,5-Difluoro-4-{[(1S*,2R*)-2-phenylcyclopentyl]oxy}-N-(1,2,4-thiadiazol-5-yl)benzenesulfonamide] | 0.61 µM |
| O=S(=O)(Nc1ncns1)c1cc(F)c(O[C@H]2CCCCC[C@@H]2c2ccccc2)cc1F (relative stereo) [Example 7, 2,5-Difluoro-4-{[(1S*,2R*)-2-phenylcycloheptyl]oxy}-N-(1,2,4-thiadiazol-5-yl)benzenesulfonamide] | 0.45 µM |
| Cn1nccc1[C@H]1CCCCC[C@@H]1Oc1cc(F)c(S(=O)(=O)Nc2ncns2)cc1F (relative stereo) [Example 9, 2,5-Difluoro-4-{[(1S*,2R*)-2-(1-methyl-1H-pyrazol-5-yl)cycloheptyl]oxy}-N-(1,2,4-thiadiazol-5-yl)benzenesulfonamide] | 0.014 µM |
| Cn1nccc1[C@H]1CCCC[C@@H]1Oc1cc(F)c(S(=O)(=O)Nc2cscn2)cc1Cl (relative stereo) [Example 10, 5-Chloro-2-fluoro-4-{[(1S*,2R*)-2-(1-methyl-1H-pyrazol-5-yl)cyclohexyl]oxy}-N-(1,3-thiazol-4-yl)benzenesulfonamide Na salt] | 0.03 µM |
| Cn1nccc1[C@H]1CCC[C@@H]1Oc1cc(F)c(S(=O)(=O)Nc2cscn2)cc1Cl (relative stereo) [Example 11, 5-Chloro-2-fluoro-4-{[(1S*,2R*)-2-(1-methyl-1H-pyrazol-5-yl)cyclopentyl]oxy}-N-(1,3-thiazol-4-yl)benzenesulfonamide Na salt] | 0.01 µM |
| CCn1nccc1[C@H]1CCCC[C@@H]1Oc1cc(F)c(S(=O)(=O)Nc2cscn2)cc1Cl (relative stereo) [Example 12, 5-Chloro-4-{[(1S*,2R*)-2-(1-ethyl-1H-pyrazol-5-yl)cyclohexyl]oxy}-2-fluoro-N-(1,3-thiazol-4-yl)benzenesulfonamide] | 0.12 µM |
| O=S(=O)(Nc1cscn1)c1cc(Cl)c(O[C@H]2CCCC[C@@H]2n2ccnc2)cc1F (relative stereo) [Example 13, 5-chloro-2-fluoro-4-{[(1S*,2S*)-2-(1H-imidazol-1-yl)cyclohexyl]oxy}-N-(1,3-thiazol-4-yl)benzenesulfonamide] | 0.082 µM |
| Cn1nccc1[C@H]1CCC[C@@H]1Oc1ccc(S(=O)(=O)Nc2nccs2)cc1F (relative stereo) [Example 16, 3-Fluoro-4-{[(1S*,2R*)-2-(1-methyl-1H-pyrazol-5-yl)cyclopentyl]oxy}-N-(1,3-thiazol-2-yl)benzenesulfonamide] | 0.23 µM |
| Cn1nccc1[C@H]1CCC[C@@H]1Oc1ccc(S(=O)(=O)Nc2cc(F)ncn2)cc1F (relative stereo) [Example 17, 3-Fluoro-N-(6-fluoropyrimidin-4-yl)-4-{[(1S*,2R*)-2-(1-methyl-1H-pyrazol-5-yl)cyclopentyl]oxy}benzenesulfonamide] | 0.51 µM |
| Cn1nccc1[C@H]1CCC[C@@H]1Oc1ccc(S(=O)(=O)Nc2ccnc(F)n2)cc1F (relative stereo) [Example 18, 3-Fluoro-N-(2-fluoropyrimidin-4-yl)-4-{[(1S*,2R*)-2-(1-methyl-1H-pyrazol-5-yl)cyclopentyl]oxy}benzenesulfonamide] | 0.17 µM |
| Cn1nccc1[C@H]1CCC[C@@H]1Oc1cc(Cl)c(S(=O)(=O)Nc2ccncn2)cc1F (relative stereo) [Example 19, 2-Chloro-5-fluoro-4-{[(1S*,2R*)-2-(1-methyl-1H-pyrazol-5-yl)cyclopentyl]oxy}-N-(pyrimidin-4-yl)benzenesulfonamide] | 0.51 µM |
| Cn1nccc1[C@H]1CCC[C@@H]1Oc1ccc(S(=O)(=O)Nc2ccncn2)cc1C(F)(F)F (relative stereo) [Example 21, 4-{[(1S*,2R*)-2-(1-Methyl-1H-pyrazol-5-yl)cyclopentyl]oxy}-N-(pyrimidin-4-yl)-3-(trifluoromethyl)benzenesulfonamide] | 0.25 µM |
| O=S(=O)(Nc1ccncn1)c1cc(F)c(O[C@H]2CCCC[C@@H]2c2ccn[nH]2)cc1F (relative stereo) [Example 22, 2,5-Difluoro-4-{[(1S*,2R*)-2-(1H-pyrazol-5-yl)cyclohexyl]oxy}-N-(pyrimidin-4-yl)benzenesulfonamide] | 0.52 µM |
| Cn1nccc1[C@H]1CCC[C@@H]1Oc1cc(F)c(S(=O)(=O)Nc2ccnc(F)n2)cc1F (relative stereo) [Example 24, 2,5-Difluoro-N-(2-fluoropyrimidin-4-yl)-4-{[(1S*,2R*)-2-(1-methyl-1H-pyrazol-5-yl)cyclopentyl]oxy}benzenesulfonamide] | 0.023 µM |
| Cn1nccc1[C@H]1CCC[C@@H]1Oc1ccc(S(=O)(=O)Nc2ccncn2)cc1C#N (relative stereo) [Example 26, 3-Cyano-4-{[(1S*,2R*)-2-(1-methyl-1H-pyrazol-5-yl)cyclopentyl]oxy}-N-(pyrimidin-4-yl)benzenesulfonamide] | 0.2 µM |
| Nc1n[nH]cc1[C@H]1CCCC[C@@H]1Oc1cc(F)c(S(=O)(=O)Nc2ccncn2)cc1F (relative stereo) [Example 34, 4-{[(1S*,2R*)-2-(3-Amino-1H-pyrazol-4-yl)cyclohexyl]oxy}-2,5-difluoro-N-(pyrimidin-4-yl)benzenesulfonamide] | 0.25 µM |
| Nc1cc([C@H]2CCC[C@@H]2Oc2cc(F)c(S(=O)(=O)Nc3ccncn3)cc2F)ccn1 (relative stereo) [Example 36, 4-{[(1S*,2R*)-2-(2-Aminopyridin-4-yl)cyclopentyl]oxy}-2,5-difluoro-N-(pyrimidin-4-yl)benzenesulfonamide] | 0.5 µM |
| O=S(=O)(Nc1ccncn1)c1cc(F)c(O[C@H]2CCCC[C@@H]2c2cccnc2)cc1F (relative stereo) [Example 39, 2,5-Difluoro-4-{[(1S*,2R*)-2-(pyridin-3-yl)cyclohexyl]oxy}-N-(pyrimidin-4-yl)benzenesulfonamide] | 1 µM |
| Cn1cncc1[C@H]1CCCC[C@@H]1Oc1cc(F)c(S(=O)(=O)Nc2ccncn2)cc1F (relative stereo) [Example 49, 2,5-Difluoro-4-{[(1S*,2R*)-2-(1-methyl-1H-imidazol-5-yl)cyclohexyl]oxy}-N-(pyrimidin-4-yl)benzenesulfonamide] | 0.66 µM |
| O=S(=O)(Nc1ccncn1)c1cc(F)c(O[C@H]2CCCC[C@@H]2c2ccnnc2)cc1F (relative stereo) [Example 53, 2,5-Difluoro-4-{[(1S*,2R*)-2-(pyridazin-4-yl)cyclohexyl]oxy}-N-(pyrimidin-4-yl)benzenesulfonamide] | 0.33 µM |
| CCc1cc(S(=O)(=O)Nc2ccncn2)c(F)cc1O[C@H]1CCC[C@@H]1c1ccnn1C (relative stereo) [Example 61, 5-Ethyl-2-fluoro-4-{[(1S*,2R*)-2-(1-methyl-1H-pyrazol-5-yl)cyclopentyl]oxy}-N-(pyrimidin-4-yl)benzenesulfonamide] | 0.0026 µM |
| Cc1ncccc1[C@H]1CCCC[C@@H]1Oc1cc(F)c(S(=O)(=O)Nc2ccncn2)cc1F (relative stereo) [Example 70, 2,5-Difluoro-4-{[(1S*,2R*)-2-(2-methylpyridin-3-yl)cyclohexyl]oxy}-N-(pyrimidin-4-yl)benzenesulfonamide] | 0.33 µM |
| CCc1cc(S(=O)(=O)Nc2ccncn2)ccc1O[C@H]1CCCC[C@@H]1c1c[nH]nc1N (relative stereo) [Example 89, 4-{[(1S*,2R*)-2-(3-Amino-1H-pyrazol-4-yl)cyclohexyl]oxy}-3-ethyl-N-(pyrimidin-4-yl)benzenesulfonamide] | 0.13 µM |
| Cn1nncc1[C@H]1CCCC[C@@H]1Oc1cc(F)c(S(=O)(=O)Nc2ccncn2)cc1F (relative stereo) [Example 92, 2,5-Difluoro-4-{[(1S*,2R*)-2-(1-methyl-1H-1,2,3-triazol-5-yl)cyclohexyl]oxy}-N-(pyrimidin-4-yl)benzenesulfonamide] | 1 µM |
| Cn1nccc1[C@@H]1[C@@H](Oc2cc(F)c(S(=O)(=O)Nc3ccncn3)cc2F)CCC1(C)C (relative stereo) [Example 99, 4-{[(1S*,2R*)-3,3-Dimethyl-2-(1-methyl-1H-pyrazol-5-yl)cyclopentyl]oxy}-2,5-difluoro-N-(pyrimidin-4-yl)benzenesulfonamide] | 0.41 µM |
| Cn1nccc1[C@@H]1[C@@H](Oc2cc(F)c(S(=O)(=O)Nc3ccncn3)cc2F)CCC[C@H]1OCc1ccccc1 (relative stereo) [Example 100, 4-{[(1S*,2S*,3R*)-3-(Benzyloxy)-2-(1-methyl-1H-pyrazol-5-yl)cyclohexyl]oxy}-2,5-difluoro-N-(pyrimidin-4-yl)benzenesulfonamide] | 0.38 µM |
| Cn1nccc1[C@H]1C[C@@H](F)C[C@@H]1Oc1cc(F)c(S(=O)(=O)Nc2ccncn2)cc1F (relative stereo) [Example 106, 2,5-Difluoro-4-{[(1S*,2R*,4R*)-4-fluoro-2-(1-methyl-1H-pyrazol-5-yl)cyclopentyl]oxy}-N-(pyrimidin-4-yl)benzenesulfonamide] | 0.27 µM |
| Cn1nccc1[C@H]1C[C@H](OCc2ccccc2)CC[C@@H]1Oc1cc(F)c(S(=O)(=O)Nc2ccncn2)cc1F (relative stereo) [Example 112, 4-{[(1S*,2R*,4R*)-4-(Benzyloxy)-2-(1-methyl-1H-pyrazol-5-yl)cyclohexyl]oxy}-2,5-difluoro-N-(pyrimidin-4-yl)benzenesulfonamide] | 0.31 µM |
| Cn1nccc1[C@@H]1[C@@H](Oc2cc(F)c(S(=O)(=O)Nc3ccncn3)cc2F)CCCC1(F)F (relative stereo) [Example 117, 4-{[(1S*,2R*)-3,3-Difluoro-2-(1-methyl-1H-pyrazol-5-yl)cyclohexyl]oxy}-2,5-difluoro-N-(pyrimidin-4-yl)benzenesulfonamide] | 0.75 µM |
| CO[C@H]1C[C@H](Oc2cc(F)c(S(=O)(=O)Nc3ccncn3)cc2F)[C@@H](c2ccnn2C)C1 (relative stereo) [Example 121, 2,5-Difluoro-4-{[(1S*,2R*,4R*)-4-methoxy-2-(1-methyl-1H-pyrazol-5-yl)cyclopentyl]oxy}-N-(pyrimidin-4-yl)benzenesulfonamide] | 0.93 µM |
